Columns and labels:
AdmJ = assay: ATP-[…]PPi exchange assay; assay type: biochemical, Pantoea agglomerans; conditions: 5 mM ATP, 1 mM PPi, 10 mM MgCl2, 5 mM TCEP, 75 mM Tris pH 7.5, RT
AdmH = AdmH (Pantoea agglomerans, UniProt Q84FL5); assay: chiral radio-HPLC; assay type: biochemical; conditions: labelled compound ([14C]-L-Phe, 100 µM); 20 mM tricine pH 8.25, 30 °C

Compound: N[C@@H](CC(=O)O)c1ccccc1 [(S)-β-Phe]
- Km (AdmJ): 130 ± 34 µM
- chiral radio-HPLC (AdmH): The β-Phe generated by AdmH was found to be solely (S)-β-Phe
